Measurements as given in paper PMC7026418, “The kinase polypharmacology landscape of clinical PARP inhibitors” (Scientific Reports, 2020).
Like-named read-outs stand apart in the source and are kept apart here. Each block holds one compound with its values, some of them ahead of it.

Columns and labels:
Assay in all cases: biochemical
FAK = target: T1, FAK (Homo sapiens, UniProt Q05397); parameters: DiscoveRx KINOMEscan active site-directed competition binding; percent of control kinase bound to immobilised ligand
T1 construct: gene PTK2
T1 sequence (Q05397 whole entry): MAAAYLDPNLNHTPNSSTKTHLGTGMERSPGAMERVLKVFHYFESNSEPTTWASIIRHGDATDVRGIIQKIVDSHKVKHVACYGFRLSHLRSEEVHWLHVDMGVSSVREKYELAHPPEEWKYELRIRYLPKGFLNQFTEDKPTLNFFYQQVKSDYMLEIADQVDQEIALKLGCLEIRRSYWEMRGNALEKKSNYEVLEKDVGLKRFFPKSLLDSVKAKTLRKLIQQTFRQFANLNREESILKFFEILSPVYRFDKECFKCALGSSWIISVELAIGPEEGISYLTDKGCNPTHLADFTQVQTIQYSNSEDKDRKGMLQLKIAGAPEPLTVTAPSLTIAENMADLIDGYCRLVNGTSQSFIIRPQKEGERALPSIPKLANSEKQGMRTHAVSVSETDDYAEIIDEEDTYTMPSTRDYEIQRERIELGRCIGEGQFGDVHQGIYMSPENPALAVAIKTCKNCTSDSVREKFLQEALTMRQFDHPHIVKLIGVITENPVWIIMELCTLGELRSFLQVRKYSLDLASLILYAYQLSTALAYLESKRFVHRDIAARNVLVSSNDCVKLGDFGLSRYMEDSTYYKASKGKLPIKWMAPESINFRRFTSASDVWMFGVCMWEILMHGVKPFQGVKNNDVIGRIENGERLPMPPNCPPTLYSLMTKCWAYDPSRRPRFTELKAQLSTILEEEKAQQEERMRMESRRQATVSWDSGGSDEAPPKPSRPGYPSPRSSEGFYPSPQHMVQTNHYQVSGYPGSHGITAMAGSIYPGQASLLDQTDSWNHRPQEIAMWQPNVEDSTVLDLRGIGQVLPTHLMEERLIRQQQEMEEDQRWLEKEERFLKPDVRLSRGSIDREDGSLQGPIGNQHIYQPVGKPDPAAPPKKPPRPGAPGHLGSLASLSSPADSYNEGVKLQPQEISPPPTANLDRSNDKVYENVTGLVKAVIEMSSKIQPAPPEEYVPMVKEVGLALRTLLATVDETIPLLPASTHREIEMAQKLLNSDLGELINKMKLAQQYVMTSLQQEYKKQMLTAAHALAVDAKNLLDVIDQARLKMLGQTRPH

FGFR2 = FGFR2 (Homo sapiens, UniProt P21802); parameters: DiscoveRx KINOMEscan active site-directed competition binding; percent of control kinase bound to immobilised ligand
Chain of FGFR2 (P21802 whole entry): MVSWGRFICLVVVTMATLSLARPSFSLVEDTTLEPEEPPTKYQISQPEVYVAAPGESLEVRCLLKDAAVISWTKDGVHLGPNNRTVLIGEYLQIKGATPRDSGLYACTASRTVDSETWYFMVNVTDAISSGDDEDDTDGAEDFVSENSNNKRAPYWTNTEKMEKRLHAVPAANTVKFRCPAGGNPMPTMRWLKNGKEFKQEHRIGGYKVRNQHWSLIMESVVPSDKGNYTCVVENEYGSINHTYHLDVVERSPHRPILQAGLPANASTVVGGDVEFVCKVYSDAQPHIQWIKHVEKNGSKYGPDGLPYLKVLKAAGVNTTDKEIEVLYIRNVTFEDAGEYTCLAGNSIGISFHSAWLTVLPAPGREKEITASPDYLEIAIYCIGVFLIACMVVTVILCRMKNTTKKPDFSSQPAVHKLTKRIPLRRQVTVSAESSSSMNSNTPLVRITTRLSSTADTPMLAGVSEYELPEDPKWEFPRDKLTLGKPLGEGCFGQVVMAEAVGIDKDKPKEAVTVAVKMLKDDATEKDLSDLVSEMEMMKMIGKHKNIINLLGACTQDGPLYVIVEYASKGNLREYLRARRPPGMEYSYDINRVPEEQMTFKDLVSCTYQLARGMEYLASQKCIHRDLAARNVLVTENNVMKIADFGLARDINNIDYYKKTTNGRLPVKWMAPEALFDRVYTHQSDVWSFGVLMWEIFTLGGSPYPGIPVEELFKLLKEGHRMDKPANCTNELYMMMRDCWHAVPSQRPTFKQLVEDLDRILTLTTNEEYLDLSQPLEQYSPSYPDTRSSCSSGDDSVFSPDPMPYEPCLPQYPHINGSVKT

DYRK1B = DYRK1B (Homo sapiens, UniProt Q9Y463); parameters: DiscoveRx KINOMEscan active site-directed competition binding; percent of control kinase bound to immobilised ligand; conditions: for remaining binding at 10 µM: binding competition, % of control
Chain of DYRK1B (Q9Y463 whole entry): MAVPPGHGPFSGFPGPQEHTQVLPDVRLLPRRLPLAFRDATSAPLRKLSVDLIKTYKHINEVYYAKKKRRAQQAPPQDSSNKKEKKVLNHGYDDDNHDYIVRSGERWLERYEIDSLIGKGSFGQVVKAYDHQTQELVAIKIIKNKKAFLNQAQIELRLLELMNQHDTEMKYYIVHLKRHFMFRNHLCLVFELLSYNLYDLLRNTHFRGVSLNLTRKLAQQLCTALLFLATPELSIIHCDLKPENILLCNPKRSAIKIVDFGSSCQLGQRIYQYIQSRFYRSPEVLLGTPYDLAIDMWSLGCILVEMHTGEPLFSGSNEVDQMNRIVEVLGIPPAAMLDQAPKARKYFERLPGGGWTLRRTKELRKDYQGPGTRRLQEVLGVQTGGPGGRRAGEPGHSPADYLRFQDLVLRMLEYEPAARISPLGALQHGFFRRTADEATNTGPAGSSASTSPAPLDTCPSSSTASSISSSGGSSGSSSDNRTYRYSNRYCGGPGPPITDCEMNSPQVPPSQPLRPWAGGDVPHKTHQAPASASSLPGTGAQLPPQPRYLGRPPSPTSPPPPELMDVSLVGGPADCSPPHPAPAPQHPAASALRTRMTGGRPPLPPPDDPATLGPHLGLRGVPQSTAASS
Method: (§1) The DiscoveRx KinomeScan platform (https://www.discoverx.com), utilizing an in vitro active site-directed competition binding assay, was used to quantitatively measure interactions between the four clinical PARP inhibitors and their largest available kinase panel. At the time when the assays were performed (date: 29/11/2016), 468 in vitro binding assays were available, corresponding to 392 unique human kinases (76% of the human kinome)[39] (Supplementary Table 5). To follow up the computational analysis, we performed a comprehensive in vitro kinome screen. To do this we employed the DiscoveRx (https://www.discoverx.com) KinomeScan in vitro binding technology[37],[38] that has been widely used for kinome profiling in drug discovery. At the time of conducting our screen, this kinome panel was the largest commercially available and comprised 468 in vitro binding assays corresponding to 392 unique human kinases (76% of the human kinome)[39] (Supplementary Table 5). Also included were assays comprising mutated, deleted, phosphorylated or autoinhibited forms of proteins (n = 63), secondary or pseudokinase domains (n = 8), non-human isoforms (n = 3) and CDK complexes with different cyclins (n = 2) (Supplementary Table 5). The assays were performed at a single relatively high concentration of 10 μM to identify initially both low and high potency off-targets. The results of our use of the in vitro binding assay for kinome profiling reveal marked differences between the kinase polypharmacology of PARP inhibitors. […] The binding technology used involves a competition assay, defining activity as ≥65% of the kinase being competed off an immobilised ligand at 10 μM[38].

STK33 = STK33 (Homo sapiens, UniProt Q9BYT3); parameters: DiscoveRx KINOMEscan active site-directed competition binding; percent of control kinase bound to immobilised ligand; conditions: for remaining binding at 10 µM: binding competition, % of control
Chain of STK33 (Q9BYT3 whole entry): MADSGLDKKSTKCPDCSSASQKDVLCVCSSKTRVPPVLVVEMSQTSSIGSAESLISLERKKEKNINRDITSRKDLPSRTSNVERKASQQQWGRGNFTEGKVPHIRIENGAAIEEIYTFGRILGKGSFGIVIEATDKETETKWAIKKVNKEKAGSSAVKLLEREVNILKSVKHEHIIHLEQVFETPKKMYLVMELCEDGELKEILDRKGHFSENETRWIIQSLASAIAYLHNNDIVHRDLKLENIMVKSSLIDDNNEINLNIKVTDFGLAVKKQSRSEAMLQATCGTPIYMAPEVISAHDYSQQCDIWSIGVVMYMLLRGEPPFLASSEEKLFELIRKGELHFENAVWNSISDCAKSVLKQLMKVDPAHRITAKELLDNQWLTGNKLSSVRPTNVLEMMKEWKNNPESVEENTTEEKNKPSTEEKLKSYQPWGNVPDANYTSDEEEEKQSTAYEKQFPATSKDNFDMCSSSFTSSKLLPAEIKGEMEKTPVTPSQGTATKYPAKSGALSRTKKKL
Method: as §1

LTK = LTK (Homo sapiens, UniProt P29376); parameters: DiscoveRx KINOMEscan active site-directed competition binding; percent of control kinase bound to immobilised ligand; conditions: for remaining binding at 10 µM: binding competition, % of control
Chain of LTK (P29376 whole entry): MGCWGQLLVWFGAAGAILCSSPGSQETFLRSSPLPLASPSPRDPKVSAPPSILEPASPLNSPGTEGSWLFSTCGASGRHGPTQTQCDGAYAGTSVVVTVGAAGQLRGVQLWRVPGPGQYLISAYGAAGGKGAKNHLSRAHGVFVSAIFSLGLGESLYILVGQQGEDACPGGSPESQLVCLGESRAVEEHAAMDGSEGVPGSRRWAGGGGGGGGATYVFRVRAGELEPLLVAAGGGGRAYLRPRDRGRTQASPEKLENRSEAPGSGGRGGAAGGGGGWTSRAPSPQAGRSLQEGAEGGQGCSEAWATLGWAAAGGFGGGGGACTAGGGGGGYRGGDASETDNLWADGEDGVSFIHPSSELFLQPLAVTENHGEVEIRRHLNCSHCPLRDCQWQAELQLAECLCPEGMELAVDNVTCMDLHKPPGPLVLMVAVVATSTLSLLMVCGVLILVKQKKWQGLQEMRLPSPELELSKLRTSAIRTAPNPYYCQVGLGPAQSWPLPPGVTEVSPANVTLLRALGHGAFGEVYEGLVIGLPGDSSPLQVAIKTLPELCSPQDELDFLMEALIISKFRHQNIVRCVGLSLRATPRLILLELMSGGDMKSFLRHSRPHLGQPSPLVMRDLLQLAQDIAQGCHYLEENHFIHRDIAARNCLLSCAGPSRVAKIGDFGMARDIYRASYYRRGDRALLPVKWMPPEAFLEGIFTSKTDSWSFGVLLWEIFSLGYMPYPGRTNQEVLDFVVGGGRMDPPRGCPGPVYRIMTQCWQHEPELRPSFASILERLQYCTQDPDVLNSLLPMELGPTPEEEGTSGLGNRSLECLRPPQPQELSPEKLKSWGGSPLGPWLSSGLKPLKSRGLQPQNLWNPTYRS
Method: as §1

FLT3(ITD) = FLT3(ITD) (Homo sapiens, UniProt P36888); parameters: DiscoveRx KINOMEscan active site-directed competition binding; percent of control kinase bound to immobilised ligand; conditions: binding competition, % of control
Chain of FLT3(ITD) (P36888 564-993, change not shown): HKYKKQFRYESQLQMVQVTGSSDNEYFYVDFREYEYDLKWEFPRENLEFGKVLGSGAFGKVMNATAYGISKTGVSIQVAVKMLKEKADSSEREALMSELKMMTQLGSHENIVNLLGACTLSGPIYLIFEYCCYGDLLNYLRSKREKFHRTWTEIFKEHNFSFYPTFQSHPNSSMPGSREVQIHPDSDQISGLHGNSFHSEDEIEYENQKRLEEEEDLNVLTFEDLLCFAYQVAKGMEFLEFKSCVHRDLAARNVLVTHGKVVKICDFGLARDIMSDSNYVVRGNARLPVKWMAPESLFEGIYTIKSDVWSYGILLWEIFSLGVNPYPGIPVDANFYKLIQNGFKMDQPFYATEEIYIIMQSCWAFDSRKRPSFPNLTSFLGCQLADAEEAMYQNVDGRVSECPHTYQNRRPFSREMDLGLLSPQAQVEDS

HASPIN = target: T2, HASPIN (Homo sapiens, UniProt Q8TF76); parameters: Reaction Biology HotSpot radiometric 33P-ATP catalytic assay at Km ATP; percent inhibition versus DMSO, mean n=2; conditions: Km ATP
T2 sequence (Q8TF76 1-798): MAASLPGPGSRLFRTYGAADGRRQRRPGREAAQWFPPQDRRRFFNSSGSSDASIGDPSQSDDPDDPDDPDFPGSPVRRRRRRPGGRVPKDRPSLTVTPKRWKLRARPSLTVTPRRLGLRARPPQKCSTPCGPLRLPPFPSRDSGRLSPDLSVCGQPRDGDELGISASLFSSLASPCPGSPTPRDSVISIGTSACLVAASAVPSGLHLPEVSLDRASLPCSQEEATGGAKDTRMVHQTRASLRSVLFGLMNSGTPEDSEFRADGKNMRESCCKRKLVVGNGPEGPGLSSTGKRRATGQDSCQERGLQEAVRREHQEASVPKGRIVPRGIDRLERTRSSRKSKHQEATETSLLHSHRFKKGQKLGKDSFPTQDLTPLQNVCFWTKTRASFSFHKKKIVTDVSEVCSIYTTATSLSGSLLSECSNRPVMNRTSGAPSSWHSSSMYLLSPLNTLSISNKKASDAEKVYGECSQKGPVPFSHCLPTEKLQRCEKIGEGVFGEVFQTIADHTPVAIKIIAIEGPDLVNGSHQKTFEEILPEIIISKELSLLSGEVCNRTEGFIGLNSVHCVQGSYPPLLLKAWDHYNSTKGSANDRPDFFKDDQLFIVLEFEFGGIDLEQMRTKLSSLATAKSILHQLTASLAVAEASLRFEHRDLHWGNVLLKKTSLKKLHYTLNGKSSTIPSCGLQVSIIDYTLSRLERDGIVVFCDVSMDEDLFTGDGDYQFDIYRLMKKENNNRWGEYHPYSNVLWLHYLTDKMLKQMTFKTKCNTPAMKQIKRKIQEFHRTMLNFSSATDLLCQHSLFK
Description: (§2) Unreacted phosphate is removed via washing the filters.

CSNK2A2 = CSNK2A2 (Homo sapiens, UniProt P19784); parameters: Reaction Biology HotSpot radiometric 33P-ATP catalytic assay at Km ATP; percent inhibition versus DMSO, mean n=2; conditions: Km ATP
Chain of CSNK2A2 (P19784 whole entry): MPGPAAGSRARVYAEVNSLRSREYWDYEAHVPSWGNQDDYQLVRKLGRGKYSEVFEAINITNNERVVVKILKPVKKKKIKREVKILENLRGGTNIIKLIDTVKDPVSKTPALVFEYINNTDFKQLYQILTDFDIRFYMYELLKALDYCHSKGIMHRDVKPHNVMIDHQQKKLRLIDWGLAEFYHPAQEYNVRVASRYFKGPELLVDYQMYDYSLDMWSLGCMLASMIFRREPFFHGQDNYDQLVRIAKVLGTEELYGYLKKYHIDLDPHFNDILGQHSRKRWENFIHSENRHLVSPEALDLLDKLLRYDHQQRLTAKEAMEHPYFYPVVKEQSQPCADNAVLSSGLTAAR
Description: as §2

CSNK2A1 = CSNK2A1 (Homo sapiens, UniProt P68400); parameters: Reaction Biology HotSpot radiometric 33P-ATP catalytic assay at Km ATP; percent inhibition versus DMSO, mean n=2; conditions: Km ATP
Chain of CSNK2A1 (P68400 whole entry): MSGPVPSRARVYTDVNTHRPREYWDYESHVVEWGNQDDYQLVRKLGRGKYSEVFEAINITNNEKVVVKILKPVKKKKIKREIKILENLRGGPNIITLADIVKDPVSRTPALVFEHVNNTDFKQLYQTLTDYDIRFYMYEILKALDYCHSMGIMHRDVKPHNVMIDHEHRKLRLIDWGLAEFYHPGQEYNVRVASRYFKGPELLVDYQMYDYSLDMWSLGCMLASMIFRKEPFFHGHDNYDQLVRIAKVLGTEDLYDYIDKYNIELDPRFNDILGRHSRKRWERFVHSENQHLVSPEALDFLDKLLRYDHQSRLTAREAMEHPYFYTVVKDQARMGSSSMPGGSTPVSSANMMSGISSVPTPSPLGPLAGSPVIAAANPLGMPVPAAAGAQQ
Description: as §2

CIT = CIT (Homo sapiens, UniProt O14578); parameters: Reaction Biology HotSpot radiometric 33P-ATP catalytic assay at Km ATP; percent inhibition versus DMSO, mean n=2; conditions: Km ATP
Description: as §2

HIPK3 = HIPK3 (Homo sapiens, UniProt Q9H422); parameters: Reaction Biology HotSpot radiometric 33P-ATP catalytic assay at Km ATP; percent inhibition versus DMSO, mean n=2; conditions: Km ATP
Description: as §2

HIPK2 = HIPK2 (Homo sapiens, UniProt Q9H2X6); parameters: Reaction Biology HotSpot radiometric 33P-ATP catalytic assay at Km ATP; percent inhibition versus DMSO, mean n=2; conditions: Km ATP
Description: as §2

Aurora B = target: T3, Aurora B (Homo sapiens, UniProt Q96GD4); conditions: read-out: Niraparib
T3 construct: gene AURKB

[1] = read-out: Olaparib / %Ctrl @ 10000nM
[2] = read-out: Talazoparib (BMN 673) / %Ctrl @ 10000nM
[3] = read-out: Rucaparib / %Ctrl @ 10000nM, binding competition, % of control
[4] = read-out: Rucaparib / %Ctrl @ 10000nM, binding competition
[5] = read-out: Niraparib (MK-4827) / %Ctrl @ 10000nM
[6] = read-out: Niraparib (MK-4827) / %Ctrl @ 10000nM, binding competition

percent of control binding at 10 µM (FAK; [1]): 100%
percent of control binding at 10 µM (FGFR2; [1]): 100%
remaining binding at 10 µM (DYRK1B; [1]): 97%
remaining binding at 10 µM (STK33; [1]): 100%
remaining binding at 10 µM (LTK; [1]): 93%
Compound: O=C(c1cc(Cc2n[nH]c(=O)c3ccccc23)ccc1F)N1CCN(C(=O)C2CC2)CC1 [Olaparib]

percent of control binding at 10 µM (FAK; [2]): 100%
percent of control binding at 10 µM (FGFR2; [2]): 100%
remaining binding at 10 µM (DYRK1B; [2]): 95%
remaining binding at 10 µM (STK33; [2]): 99%
remaining binding at 10 µM (LTK; [2]): 91%
Compound: Cn1ncnc1[C@H]1c2n[nH]c(=O)c3cc(F)cc(c23)N[C@@H]1c1ccc(F)cc1 [Talazoparib]

percent of control binding at 10 µM (FAK; [3]): 100%
percent of control binding at 10 µM (FGFR2; [3]): 99%
Rucaparib / %Ctrl @ 10000nM (FLT3(ITD)): 41%
percent of control kinase binding at 10 µM (DYRK1B; [4]): 5.7%
percent of control kinase binding at 10 µM (STK33; [4]): 89%
percent of control kinase binding at 10 µM (LTK; [4]): 89%
inhibition at 1 µM (HASPIN): -6%
inhibition at 1 µM (CSNK2A2): 17%
inhibition at 1 µM (CSNK2A1): 21%
inhibition at 1 µM (CIT): 15%
inhibition at 1 µM (HIPK3): -12%
inhibition at 1 µM (HIPK2): -6%
Compound: CNCc1ccc(-c2[nH]c3cc(F)cc4c3c2CCNC4=O)cc1 [Rucaparib]

Compound: NC(=O)c1cccc2cn(-c3ccc([C@@H]4CCCNC4)cc3)nc12 [Niraparib]
percent of control binding at 10 µM (FAK; [5]): 100%
percent of control binding at 10 µM (FGFR2; [5]): 100%
percent of control kinase binding at 10 µM (DYRK1B; [6]): 0%
percent of control kinase binding at 10 µM (LTK; [6]): 71%
inhibition at 1 µM (Aurora B): 34%
inhibition at 1 µM (HASPIN): 10%
inhibition at 1 µM (CSNK2A2): -1%
inhibition at 1 µM (CSNK2A1): 12%
inhibition at 1 µM (CIT): 10%
inhibition at 1 µM (HIPK3): 5%
inhibition at 1 µM (HIPK2): 23%
